Data published in publication PMC2990756, “Quantitative High-Throughput Screening Identifies 8-Hydroxyquinolines as Cell-Active Histone Demethylase Inhibitors” (PLoS ONE, 2010).
Like-named read-outs stand apart in the source and are kept apart here.

Key:
Assay type in all cases: biochemical
JMJD2E (KDM4E) = target: T1, JMJD2E (KDM4E) (Homo sapiens, UniProt B2RXH2); experiment: qHTS fluorescence FDH-coupled JMJD2E demethylase assay
T1 construct: The catalytic domain of human JMJD2E (residues 1–337); His6 (N); made in house; host or cells: E. coli
T1 sequence (B2RXH2 1-337): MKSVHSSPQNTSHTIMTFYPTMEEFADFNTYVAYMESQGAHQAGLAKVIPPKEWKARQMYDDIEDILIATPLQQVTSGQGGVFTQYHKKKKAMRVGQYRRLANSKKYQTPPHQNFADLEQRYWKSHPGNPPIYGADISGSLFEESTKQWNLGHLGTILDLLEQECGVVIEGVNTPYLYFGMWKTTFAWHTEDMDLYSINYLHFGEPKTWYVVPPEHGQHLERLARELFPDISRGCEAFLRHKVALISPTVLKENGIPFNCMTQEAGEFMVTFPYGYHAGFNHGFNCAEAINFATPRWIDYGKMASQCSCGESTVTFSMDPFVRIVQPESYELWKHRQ

[1] = target: T2, formaldehyde dehydrogenase (FDH) (Pseudomonas putida, UniProt P46154); experiment: FDH coupling enzyme counterscreen
T2 construct: purchased Sigma-Aldrich
From the text: Dimethylsulfoxide certified ACS grade (DMSO) was from Fisher, Inc. HEPES buffer was obtained from Gibco. […] Black solid-bottom 1,536-well assay plates were from Greiner Bio-One (Monroe, NC).

JMJD2E = target: T3, JMJD2E (Homo sapiens, UniProt B2RXH2); experiment: JMJD2E FDH-coupled assay under low and high iron conditions (iron chelation profile); parameters: The catalytic domain of human JMJD2E (residues 1–337); His6 (N); made in house; host or cells: E. coli
T3 sequence (B2RXH2 1-337): T1 sequence (B2RXH2 1-337)
Method: The prioritized compounds were also evaluated in the screening assay using two different ferrous ion concentrations (termed high iron and low iron, respectively), in order to assess their propensity for iron chelation.
The ratio of IC50 values under high iron to low iron was calculated for each compound.

[2] = Figure 3, substituted 8-hydroxyquinolines against JMJD2E, read-out: IC50 /μM (qHTS IC50, FDH-coupled assay)
[3] = Table S1, unit not in table, from Figure 2, read-out: qHTS Data: jmjd2e IC50
[4] = Table S1, high iron, head says 20 µM FAS, unit not in table, from Figure 2, read-out: qHTS Data: jmjd2e fas20um IC50
[5] = Table S1, low iron 2.5 µM FAS, unit not in table, from Figure 2, read-out: qHTS Data: jmjd2e fas2.5um IC50
[6] = Table S1, FDH counterscreen, unit not in table, from Figure 2, read-out: qHTS Data: jmjd2e fdh IC50

T2 sequence (P46154 whole entry): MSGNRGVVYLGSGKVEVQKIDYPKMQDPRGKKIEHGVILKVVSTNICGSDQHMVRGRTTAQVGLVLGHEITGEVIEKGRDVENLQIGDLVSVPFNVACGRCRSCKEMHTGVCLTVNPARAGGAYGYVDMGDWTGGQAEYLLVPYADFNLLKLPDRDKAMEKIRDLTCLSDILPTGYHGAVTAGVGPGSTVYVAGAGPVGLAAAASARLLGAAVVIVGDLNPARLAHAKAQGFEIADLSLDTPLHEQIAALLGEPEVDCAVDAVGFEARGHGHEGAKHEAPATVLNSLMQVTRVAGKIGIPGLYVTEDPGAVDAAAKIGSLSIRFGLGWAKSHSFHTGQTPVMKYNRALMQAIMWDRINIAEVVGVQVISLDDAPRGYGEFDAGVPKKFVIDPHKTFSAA

Structure (SMILES)	IC50 (JMJD2E (KDM4E); [3]) [µM]	qHTS Data: jmjd2e fdh CurveClass ([1]; Table S1, FDH counterscreen)	IC50 (JMJD2E; [4]) [µM]	IC50 (JMJD2E; [5]) [µM]	IC50 [1, 6] [µM]	qHTS Data: jmjd2e fas20um CurveClass (JMJD2E; Table S1, high iron)	also measured
Oc1ccc(NCc2ccccc2OCc2ccccc2F)cc1 [SID 17385881]							IC50 (JMJD2E (KDM4E); Figure 2, 100 nM JMJD2E, 10 µM FAS, read-out: IC50 values in μM, qHTS): 5 µM; IC50 ([1]; Figure 2, 0.025 U/mL FDH, 10 µM formaldehyde, read-out: IC50 values in μM, FDH): > 57 µM; IC50 (JMJD2E; Figure 2, high iron 25 µM Fe(II), read-out: IC50 values in μM, High Fe): 14.1 µM
Oc1ccc(CNc2ccccc2)c2cccnc12 [compound 842629]	8.91	Inactive	14.1	1.26			IC50 (JMJD2E (KDM4E); [2]): 8.9 µM
CCOC(=O)C1CCN(Cc2ccc(O)c3ncccc23)CC1 [compound 850072]	8.91	Inconclusive	2	4.47			
O=C(NO)c1ccccc1O [compound 855524]	10	Poor quality curve		12.6	3.55	Inactive	
Cl.NC(CO)C(=O)NNCc1ccc(O)c(O)c1O (stereo not drawn) [compound 855739]	2.24	Inactive	3.98	1.78			
O=C(O)c1cccc(C(=O)O)n1 [compound 863941]	8.91	Inactive	7.94	2.82			
CCOC(=O)Cc1csc(-n2sc3ccccc3c2=O)n1 [compound 3716597]	10	Inactive		7.08		Inactive	
Oc1ccc(CN2CCCc3ccccc32)c2cccnc12 [compound 4249321]	8.91	Inactive		1.26		Inactive	
O=C(CC1Sc2ncnn2C1=O)Nc1ccc(Br)cc1 (stereo not drawn) [compound 7966079]	2.24		1	2	0.28		
COc1ccc(NC(=O)CC2Sc3ncnn3C2=O)cc1 (stereo not drawn) [compound 7968088]	2		12.6	1.78	0.28		
COc1ccc(N2C(=O)CC(Sc3ncn[nH]3)C2=O)c(OC)c1 (stereo not drawn) [compound 7974422]	2.82		35.5	1.41	0.32	Poor quality curve	
O=Cc1ccc(O)c(O)c1 [compound 8139931]	4.47	Inactive		3.55		Inactive	
Cc1cc2c(C(C)C)c(O)c(O)c(C=O)c2c(O)c1-c1c(C)cc2c(C(C)C)c(O)c(O)c(C=O)c2c1O [compound 11112318]	7.94		15.8	1.12	31.6		
C[C@@](N)(Cc1ccc(O)c(O)c1)C(=O)O [compound 11112415]	4.47	Inactive	2	4.47			
C[C@H](N)[C@H](O)c1ccc(O)c(O)c1 [compound 11112447]	4.47	Inactive	2.24	3.98			
CN(C)[C@H]1C(=O)C(C(=O)NCN[C@@H](CCCCN)C(=O)O)=C(O)[C@]2(O)C(=O)C3=C(O)c4c(O)cccc4[C@@](C)(O)[C@H]3C[C@@H]12 [compound 11112463]	8.91	Inactive	15.8	14.1			
CN1CC[C@]2(C)c3cc(O)ccc3N(C)[C@@H]12 [compound 11112885]	2.24	Inconclusive	7.08	8.91			

Structure (SMILES)	IC50 (JMJD2E (KDM4E); [3]) [µM]	qHTS Data: jmjd2e fdh CurveClass ([1]; Table S1, FDH counterscreen)	IC50 (JMJD2E; [4]) [µM]	IC50 (JMJD2E; [5]) [µM]	IC50 [1, 6] [µM]	qHTS Data: jmjd2e fas20um CurveClass (JMJD2E; Table S1, high iron)	also measured
O=C(O)c1cccnc1C(=O)O [compound 11113416]	1.78	Inactive	11.2	7.94			
Cc1ccc(N2C(=O)CC(Sc3ncn[nH]3)C2=O)cc1C (stereo not drawn) [compound 14726720]	1.26			1.41	0.22	Inactive	
Cc1ccc(N2C(=O)CC(Sc3ncn[nH]3)C2=O)cc1 (stereo not drawn) [compound 14726735]	2.51		31.6	2	0.32	Poor quality curve	
CC(C)c1ccc(N2C(=O)CC(Sc3ncn[nH]3)C2=O)cc1 (stereo not drawn) [compound 14726804]	1.58		19.9	2.51	0.25	Poor quality curve	
O=C1CC(Sc2ncn[nH]2)C(=O)N1c1ccccc1 (stereo not drawn) [compound 14730480]	2.24			2.51	0.32	Inactive	
Cc1cc(C(=O)NNC(=S)NC(=O)/C=C/c2ccccc2Cl)n[nH]1 [compound 14736067]	7.94	Inactive		8.91		Inactive	
Cc1ccc2ccc(C(Nc3ccccn3)c3ccccc3)c(O)c2n1 (stereo not drawn) [compound 14737227]	39.8						
C=CCc1c(C)nc(C)nc1N/N=C/c1ccccc1O [compound 14741635]	3.16	Inactive		3.16		Inactive	
O=[N+]([O-])c1ccc(O)c(/C=N/Nc2ccc(Cl)nn2)c1 [compound 17416266]	5.62	Inactive		5.62		Inactive	
O=C(NC(=S)NNC(=O)c1ccccc1O)c1ccco1 [compound 17504924]	7.08	Poor quality curve		3.55	2.82	Inactive	
COc1ccc(-c2cc(=O)n(CCC#N)[nH]2)cc1 [compound 17508964]	1.78	Inactive	12.6				qHTS Data: jmjd2e fas2.5um Curve comment (JMJD2E; Table S1, low iron 2.5 µM FAS): Inactive
O=C(CSc1ncn[nH]1)c1cccc([N+](=O)[O-])c1 [compound 17510781]	7.94		14.1	10	0.89		
COc1ccccc1NC(=S)NNC(=O)c1nn(C)c(C)c1Br [compound 22404294]	7.94	Inactive	2.51	3.98			
Oc1cccc2ccc(/C=C/c3c(F)cccc3Cl)nc12 [compound 24793399]							IC50 (JMJD2E (KDM4E); [2]): 28 µM
Oc1cc(O)c2c(c1)OC(c1cc(O)c(O)c(O)c1)C(O)C2 (stereo not drawn) [compound 26749553]	1.41		3.16	2.82		Poor quality curve	
Oc1ccc(CNc2cccc(C(F)(F)F)c2)c2cccnc12 [compound 50122416]							IC50 (JMJD2E (KDM4E); [2]): 7.9 µM
Oc1c(CN2CCCC2)cc(COCc2ccccc2)c2cccnc12 [compound 85736312]							IC50 (JMJD2E (KDM4E); [2]): 5 µM
